Publication PMC6365506, “Plasmodium falciparum specific helicase 2 is a dual, bipolar helicase and is crucial for parasite growth” (Scientific Reports, 2019)

Columns and labels:
[1] = molecular target: T1, PfPSH2 (Plasmodium falciparum, UniProt A0A1Q1G9G0); assay: radiolabelled Pi release, TLC; format: biochemical; details: M13mp19 ssDNA or total RNA as stimulator; 1.0 mM MgCl2, pH 8.0, 37 °C; labelled compound ([γ-32P]ATP with 1 mM cold ATP)
T1 construct: gene PSH2; full length, 880 residues, ~105 kDa, His-tagged (pET28a+), expressed in E. coli BL21 codon Plus, Ni-NTA purified
T1 sequence (A0A1Q1G9G0 1-880): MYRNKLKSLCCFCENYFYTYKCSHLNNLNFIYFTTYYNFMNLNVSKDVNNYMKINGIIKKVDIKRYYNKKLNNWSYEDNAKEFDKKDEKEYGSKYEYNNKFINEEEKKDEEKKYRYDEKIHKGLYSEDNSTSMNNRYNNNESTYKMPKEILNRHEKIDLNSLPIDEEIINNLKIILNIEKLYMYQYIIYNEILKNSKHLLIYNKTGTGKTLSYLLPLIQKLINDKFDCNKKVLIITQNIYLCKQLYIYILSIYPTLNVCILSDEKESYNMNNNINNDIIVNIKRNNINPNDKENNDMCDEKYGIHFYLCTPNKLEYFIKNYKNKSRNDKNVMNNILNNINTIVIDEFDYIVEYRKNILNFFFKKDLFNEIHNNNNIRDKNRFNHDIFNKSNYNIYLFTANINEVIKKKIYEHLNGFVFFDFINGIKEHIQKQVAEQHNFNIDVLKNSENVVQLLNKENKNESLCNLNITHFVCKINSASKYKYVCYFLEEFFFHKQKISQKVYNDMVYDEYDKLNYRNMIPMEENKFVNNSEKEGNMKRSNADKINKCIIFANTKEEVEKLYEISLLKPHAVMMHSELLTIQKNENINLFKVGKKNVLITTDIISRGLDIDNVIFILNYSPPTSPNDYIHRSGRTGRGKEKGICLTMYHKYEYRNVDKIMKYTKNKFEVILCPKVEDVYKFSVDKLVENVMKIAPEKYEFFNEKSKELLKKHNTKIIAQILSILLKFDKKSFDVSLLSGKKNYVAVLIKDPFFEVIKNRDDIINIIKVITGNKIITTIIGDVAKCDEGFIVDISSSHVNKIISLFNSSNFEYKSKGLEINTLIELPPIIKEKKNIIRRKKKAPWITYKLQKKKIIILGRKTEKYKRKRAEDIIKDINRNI

[2] = molecular target: T1, PfPSH2; assay: DNA helicase unwinding assay, gel autoradiography; format: biochemical; details: 32P-labelled partial duplex DNA; dATP in place of ATP; 1.0 mM MgCl2, pH 8.0, 37 °C; 80 nM protein

Structure (SMILES) | radiolabelled Pi release, TLC [1] | DNA helicase unwinding assay, gel autoradiography [2]
Nc1ncnc2c1ncn2[C@@H]1O[C@H](COP(=O)(O)OP(=O)(O)OP(=O)(O)O)[C@@H](O)[C@H]1O [ATP] | PfPSH2 shows concentration-dependent ATPase activity in the presence of DNA | –
Nc1ncnc2c1ncn2[C@H]1C[C@H](O)[C@@H](COP(=O)(O)OP(=O)(O)OP(=O)(O)O)O1 [dATP] | – | PfPSH2 prefers ATP and dATP for unwinding the duplex substrate
